From PMC9369794 (Molecules, 2022)

Legend:
[1] = FRAP assay for the antioxidant capacity; design: key to FRAP: slope of concentration-absorbance line divided by Trolox slope; conditions: stock in THF, acetate buffer pH 3.0, 37 °C, 15 min; ratio of slopes to trolox (melatonin in EtOH)
Protocol: In the FRAP method the antioxidant reduces Fe^3+ to Fe^2+ in an acidic medium. These experiments were performed in an acetate buffer of pH 3.0, the stock solutions of the examined antioxidants were prepared in THF. The antioxidant capacities were compared to that of Trolox as a standard, just like in the ABTS assays.
A modified literature process was used. The FRAP reagent should also be prepared freshly each day. 2,4,6-Tris(2-pyridyl)-s-triazin (TPTZ) was dissolved in a 200 mM HCl solution and diluted with water to get a final 40 mM HCl and 10 mM TPTZ concentration. For the preparation of the FRAP reagent 30 mL of 20 mM FeCl3 solution and 30 mL of 10 mM TPTZ solution were mixed, and 300 mL of 300 mM acetate buffer with pH 3.0 was added (a pH lower than usual was used to avoid the precipitation of the TPTZ). The FRAP reagent was incubated at 37 °C for 15 min. 150 μL of antioxidant dissolved in THF was mixed with 2.85 mL FRAP reagent solution, and incubated at 37 °C for 15 min in dark. Measurements were carried out at each antioxidant concentration (0, 7.5; 10; 12.5; 15; 17.5 μM final concentration) in triplicate. In the 0 μM solution the antioxidant solution was substituted with acetate buffer (pH 3.0). The FRAP was determined at 600 nm: the absorbance values were plotted as a function of concentration of the sample compounds and that of Trolox for the standard reference data. The FRAP values were calculated as in the ABTS assays, i.e., the slope of the concentration-absorbance lines for the carotenoid derivatives was divided by that for the trolox.

[2] = Study of aggregation by UV-Vis spectrophotometry; format: physicochemical; conditions: for type of aggregates formed: from THF:aqueous solutions; for change of UV spectrum with increasing ratio of PBS: starting from THF solutions
Text: It has been known for a long while that carotenoids or their derivatives can be prone to supramolecular organization in water or water-organic solvent mixtures. This behaviour is especially interesting because this higher organization can modulate or alter biological properties of carotenoids, as well [40]. A tendency to form supramolecular structures can be tested by recording the UV spectra in an organic solvent and increasing the ratio of water in the sample. […] We have some recent experience of such behaviour of carotenoid-flavonoid conjugates.
All of our adducts were tested with the method above using tetrahydrofurane (THF) or dimethylsulfoxide (DMSO) with increasing ratio of phosphate-buffered saline (PBS), which was the medium of the antioxidant measurements. […]
1. Study of Aggregation by UV-Vis Spectrophotometry
Starting from THF solutions: each conjugate was dissolved in freshly distilled THF and the solutions were diluted
either with THF or THF-PBS mixtures to obain final solutions of identical carotenoid concentration. […]
Figure S1. UV-spectra of 8’-apo-β-carotenol succinate ( 6) ( a) in THF and in THF-PBS mixtures ( 1:1 , 1:3); (b) in DMSO
Figure S2. UV-spectra of zeaxanthin bissuccinate ( 7) ( a) in THF and in THF-PBS mixtures ( 1:1 , 1:3); (b) in DMSO and
Figure S3. UV-spectra of zeaxanthin monosuccinate ( 11) ( a) in THF and in THF-PBS mixtures ( 1:1 , 1:3); (b) in DMSO […]

[3] = Hydrodynamic diameter and colloidal stability of aggregates by dynamic light scattering; format: physicochemical; conditions: for mean size (hydrodynamic diameter) / zeta potential: 37 °C; for PDI: sd^2/mean size^2
Protocol: In contrary, all spectra gave a hypsochromic shift and loss of fine-structure when the DMSO solutions were diluted with PBS, which refers to the formation of H-type (card-pack) aggregates (Figures S1–S12). Since DMSO-containing aqueous systems are more suitable for biological studies, we examined these solution by dynamic light scattering (DLS) spectroscopy to gain more information about the particles. The concentrations of the examined solutions were the same as used in the ABTS/TEAC measurements (0.3125–5.00 μM, see next section).
Size determination of aggregates and the colloidal stability of the sample dispersions were determined by dynamic light scattering measurements, where the hydrodynamic diameter of particles, and zeta potential values were collected. The number-weighted size distribution indicated one main peak in each case, the polydispersity index (PDI) was calculated as sd^2/mean size^2. For the particle size analysis Malvern Zetasizer Nano S instrument and for the zeta potential determination Malvern Zetasizer Nano Z instrument were used (Malvern Panalytical Ltd., Great Malvern, Worcestershire, UK). The measurements were carried out in autocorrelation mode, and the following parameters were kept constant: scattering angle 173°, attenuator 11 and its factor 0.0146, measurement position 4.65 mm. The concentrations of sample dispersions were between 0.3125 and 5 µM. The dispersion medium was PBS. Each samples was examined after 6 min incubation period at 37 °C.

[4] = TEAC assay using ABTS radical; conditions: 6 min, ratio of slopes to trolox (melatonin dissolved in EtOH); for TEAC from DMSO: stock in DMSO diluted with PBS pH 7.4, 37 °C; for TEAC from THF: stock in THF diluted with PBS pH 7.4, 37 °C
Protocol: This method uses a redox reaction between ABTS^•+ radical cation and the examined antioxidants, which act as the reducing agents. […] As the carotenoids and the conjugates are poorly soluble in water, they were dissolved first either in small amounts of freshly distilled tetrahydrofuran (THF) or in dimethylsulfoxide (DMSO), and these stock solutions were diluted with phosphate-buffered saline (PBS) to the final nominal concentration.
The TEAC values were determined in isotonic phosphate buffer of pH 7.4. The buffer solution was made by dissolving 9.55 g of DPBS powder in distilled water to form 1L of solution (composition: 0.138 M NaCl, 0.0027 M KCl, 0.0081 M Na2HPO4, 0.0015 M KH2PO4). The assay was performed according to a literature process with slight modifications. The ABTS^•+ radical cation was produced by reacting 7 mM 2,2′-azino-bis(3-ethylbenzothiazoline-6-sulfonic acid) and 2.45 mM potassium persulfate in water. The stock ABTS^•+ solution was prepared 12–16 h before the experiments, and stored at room temperature in dark. The absorbance of the ABTS^•+ solution was set to 0.70 ± 0.05 at 734 nm by a ca. 100-fold dilution with phosphate-buffered saline (PBS). […] The stock solutions were diluted with PBS such that equal amounts of the diluted solutions were added to the ABTS^•+ reagent to obtain final antioxidants concentrations of 0.3125, 0.625, 1.25, 2.50, 3.75, 5 μM, respectively. In the blank (0 μM), the solutions of the antioxidants were substituted with THF or DMSO.
The antioxidants were incubated with ABTS^•+ solution at 37 °C for 6 min. During the reaction of ABTS^•+ with the antioxidants the absorbance of the solution decreases. The percentage inhibition of absorbance at 734 nm was calculated as (A0 − Aantioxidant)/A0, where A0 is the absorbance of the ABTS^•+ solution and Aantioxidant is the absorbance measured after the addition of the antioxidant. The determinations were carried out at each concentration in triplicate. The calculated values were plotted against the final concentration of the antioxidants. The slopes of the curves were compared with that for trolox, the TEAC value is the ratio of the slopes for the antioxidant and for trolox.

[5] = 0.3125 μM in PBS from DMSO stock
[6] = 0.625 μM in PBS from DMSO stock

| Compound | FRAP [1] | type of aggregates formed [2] | change of UV spectrum with increasing ratio of PBS [2] | melting point [°C] | mean size (hydrodynamic diameter) [3, 5] | zeta potential [3, 5] [mV] | mean size (hydrodynamic diameter) [3, 6] | zeta potential [3, 6] [mV] | mean size (hydrodynamic diameter) ([3]; 1.25 μM in PBS from DMSO stock) | zeta potential ([3]; 1.25 μM in PBS from DMSO stock) [mV] | mean size (hydrodynamic diameter) ([3]; 2.5 μM in PBS from DMSO stock) [nm] | zeta potential ([3]; 2.5 μM in PBS from DMSO stock) [mV] | PDI ([3]; 2.5 μM in PBS) | mean size (hydrodynamic diameter) ([3]; 3.75 μM in PBS from DMSO stock) [nm] | zeta potential ([3]; 3.75 μM in PBS from DMSO stock) [mV] | PDI ([3]; 3.75 μM in PBS) | mean size (hydrodynamic diameter) ([3]; 5 μM in PBS from DMSO stock) [nm] | zeta potential ([3]; 5 μM in PBS from DMSO stock) [mV] | PDI ([3]; 5 μM in PBS) | TEAC from THF [4] | other results |
| --- | --- | --- | --- | --- | --- | --- | --- | --- | --- | --- | --- | --- | --- | --- | --- | --- | --- | --- | --- | --- | --- |
| COc1ccc2[nH]cc(CCNC(=O)CNC(=O)CCC(=O)O[C@@H]3CC(C)=C(/C=C/C(C)=C/C=C/C(C)=C/C=C/C=C(C)/C=C/C=C(C)/C=C/C4=C(C)C[C@@H](OC(=O)CCC(=O)NCC(=O)NCCc5c[nH]c6ccc(OC)cc56)CC4(C)C)C(C)(C)C3)c2c1 [Compound 14, Zeaxanthin-bismelatonin conjugate] | 0.206 | J-type (head-to-tail) aggregates | bathochromic shift | 149 to 150 | too large for DLS | −0.7 | too large for DLS | −0.7 | too large for DLS | −1.0 | 137.50 | −0.4 | 0.0147 | 91.77 | −0.2 | 0.0108 | 705.10 | 0.0 | 0.0659 | 2.080 | TEAC from DMSO [4]: 2.79 |
| COc1ccc2[nH]cc(CCNC(=O)CNC(=O)CCC(=O)O[C@@H]3CC(C)=C(/C=C/C(C)=C/C=C/C(C)=C/C=C/C=C(C)/C=C/C=C(C)/C=C/C4=C(C)CCCC4(C)C)C(C)(C)C3)c2c1 [Compound 15, Cryptoxanthin-melatonin conjugate] | 0.154 | J-type (head-to-tail) aggregates | bathochromic shift | 153 to 154 | 29.79 nm | −13.4 | 31.22 nm | −23.5 | 74.91 nm | −20.8 | 305.10 | −20.4 | 0.1649 | 826.80 | −11.8 | 0.0840 | 615.10 | −15.7 | 0.0992 | 1.777 | PDI ([3]; 0.3125 μM in PBS): 0.0356; PDI ([3]; 0.625 μM in PBS): 0.1230; PDI ([3]; 1.25 μM in PBS): 0.1051 |
| COc1ccc2[nH]cc(CCNC(=O)CNC(=O)CCC(=O)O[C@@H]3CC(C)=C(/C=C/C(C)=C/C=C/C(C)=C/C=C/C=C(C)/C=C/C=C(C)/C=C/C4C(C)=C[C@@H](OC(=O)CCC(=O)NCC(=O)NCCc5c[nH]c6ccc(OC)cc56)CC4(C)C)C(C)(C)C3)c2c1 (some centres unmarked) [Compound 16, Lutein-bismelatonin conjugate] | 0.460 | J-type (head-to-tail) aggregates | bathochromic shift | 123 to 124 | 131.20 nm | −12.2 | 51.10 nm | −11.7 | 142.50 nm | −12.5 | 91.19 | −27.5 | 0.1585 | 39.28 | −1.4 | 0.1229 | 43.14 | −0.5 | 0.0264 | 2.933 | PDI ([3]; 0.3125 μM in PBS): 0.2022; PDI ([3]; 0.625 μM in PBS): 0.0673; PDI ([3]; 1.25 μM in PBS): 0.0108; TEAC from DMSO [4]: 2.40 |
| COc1ccc2[nH]cc(CCNC(=O)CNC(=O)CCC(=O)O[C@@H]3CC(C)=C(/C=C/C(C)=C/C=C/C(C)=C/C=C/C=C(C)/C=C/C=C(C)/C=C/C(=O)[C@]4(C)C[C@@H](OC(=O)CCC(=O)NCC(=O)NCCc5c[nH]c6ccc(OC)cc56)CC4(C)C)C(C)(C)C3)c2c1 [Compound 17, Capsanthin-dimelatonin conjugate] | 0.629 | J-type (head-to-tail) aggregates | bathochromic shift | 130 to 131 | 24.42 nm | −31.0 | 43.47 nm | −22.9 | 101.60 nm | −21.1 | 226.30 | −22.2 | 0.1650 | 58.55 | −27.5 | 0.1693 | 236.60 | −27.0 | 0.1273 | 1.519 | PDI ([3]; 0.3125 μM in PBS): 0.0408; PDI ([3]; 0.625 μM in PBS): 0.1239; PDI ([3]; 1.25 μM in PBS): 0.1362; TEAC from DMSO [4]: 2.53 |
